According to patent US20060127324A1, “Chewable oral compositions containing an anti-microbial agent and methods of formulating the compositions to have acceptable germ kill properties and taste” (Cadbury Adams USA LLC, priority 2004, published 2006):
Converted amounts (≈) assume the structure as drawn.

How the values were obtained:
[1] = Release of anti-microbial agent from chewing gum composition after 10 minutes of chewing; assay type: physicochemical; settings: for Release Rate (%) After 10 Minutes of Chewing: chewing gum compositions; for Q factor (100/percentage released): chewing gum composition
Procedure: The germ kill potential (P) therefore is determined by the product of the concentration of at least one anti-microbial agent contained in the composition and the germ kill rating of each anti-microbial agent. The result is in turn multiplied by the mass of the composition and a factor Q as defined previously which is a measure of how easily the anti-microbial agent is released from the oral composition into the oral cavity. The Q factor may be readily determined for a given oral composition by comparing the amount of the anti-microbial agent present in the oral composition before placement in the oral cavity and how much remains after placement in the oral cavity for a fixed period of time. For other compositions such as chewing gum compositions, the release rate of the anti-microbial agent is much slower. Typically only a portion of the anti-microbial agent is released instantaneously and/or on initial chewing. For example, the release rate of anti-microbial agents after 10 minutes of chewing can be as low as less than 10%. […] Thus, the factor Q is 11.1 (100%/9%). The targeted (P) value selected for the chewing gum composition would therefore have to be about 11.1 times greater than the (P) value for the corresponding pressed mint composition.

[2] = tested on: microorganisms found in the oral cavity; test: Minimum inhibitory concentration (MIC) of anti-microbial agent; assay type: cell-based
Excerpt: The germ kill rating (R) of each anti-microbial agent used in the oral composition is the ratio of the maximum acceptable taste concentration (ATC) of the anti-microbial agent and the minimum inhibitory concentration (MIC). The germ kill rating (R) is therefore a value representative of the suitability of a particular anti-microbial agent to provide a balance between acceptable taste and germ killing efficacy. A relatively high (R) value is indicative of an anti-microbial agent that can be used in a relatively large range of concentrations without adversely effecting taste while still obtaining the desired germ kill properties. […] However, thymol has a very low maximum acceptable taste concentration and therefore provides a germ kill rating (R) of 1.1 which is lower than the other four essential oils in Table 2 even though the other essential oils have a higher minimum inhibitory concentration.

[3] = tested on: microorganisms found in the oral cavity; test: Germ kill rating (R), ratio of ATC and MIC; settings: mint lozenge having a weight of 1.5 grams
Excerpt: The germ kill rating (R) is therefore a quantitative indication of the range of concentrations of the anti-microbial agent (i.e. effective concentration range) that may be employed to achieve both the desirable germ kill properties and acceptable taste. By way of example, an anti-microbial agent having a germ kill rating of 10 has an effective concentration range twice as large as an anti-microbial agent having a germ kill rating of 5. The germ kill rating (R) of each anti-microbial agent used in the oral composition is the ratio of the maximum acceptable taste concentration (ATC) of the anti-microbial agent and the minimum inhibitory concentration (MIC). The germ kill rating (R) is therefore a value representative of the suitability of a particular anti-microbial agent to provide a balance between acceptable taste and germ killing efficacy. A relatively high (R) value is indicative of an anti-microbial agent that can be used in a relatively large range of concentrations without adversely effecting taste while still obtaining the desired germ kill properties. […] The maximum acceptable taste concentration (ATC) of an anti-microbial agent can be determined through known population sampling methods. […] The results are averaged and analyzed according to known statistical methods to yield the ATC value for a particular anti-microbial agent in a given solid carrier (e.g. mint lozenge). […]

| SMILES | Release Rate (%) After 10 Minutes of Chewing [1] [%] | MIC [2] [µg/mL] | Q factor (100/percentage released) [1] | Germ Kill Rating (R) [3] | Release Rate (%) After 10 Minutes of Chewing ([1]; listed as eucalyptol) [%] |
| --- | --- | --- | --- | --- | --- |
| CC(C)[C@@H]1CC[C@@H](C)CC1=O [Menthone] | 10.4 |  |  |  |  |
| CC1CCC(C(C)C)C(O)C1 (centres unmarked) [Menthol] | 9 | 500 (≈ 3200 µM) | 11.1 | 24 |  |
| CC12CCC(CC1)C(C)(C)O2 [Eucalyptol] | 19.9 |  | 5.025 |  | 19.9 |
| Cc1ccc(C(C)C)c(O)c1 [Thymol] |  | 87 (≈ 579 µM) |  | 1.1 |  |
| COC(=O)c1ccccc1O [Methyl Salicylate] | 8.9 |  |  |  |  |
